# Measurements: US7375246B2, “Sulfhydral containing compounds and methods of using the same” (Regenesis Bioremediation Products Inc., priority 2003, dated 2008)
# Columns and labels:
# [1] = Example D: two-flask liquid/soil system with chromated copper arsenate, arsenic
# Experimental: (§1) A system which had two connected 250 ml flasks, one with liquid and soil and the other with a reservoir of liquid, was used. The liquid flowed between the 2 flasks. Samples were taken from the flask without the soil to determine the amount of Cu, As and Cr present in the aqueous phase. The liquid in the flask without soil was sampled periodically and the Cu, Cr and As content measured by Atomic Absorption Spectroscopy. A unimolar ratio of copper chromate and copper arsenate was used as being representative of chromated copper arsenate. The level of contamination was selected so that the As component was about 30 mg/L. After the system was set up the As component was determined to be 28.3 mg/L. The Cu and Cr were approximately 25 mg/L and 15.5 mg/L, respectively.
# (§2) Ferrous cysteinate and sorbitol tricysteinate were both used in this system.
# [2] = Example E: Aquifer Simulation Vessel (ASV), chromated copper arsenate, copper; conditions: for Copper concentration in aqueous phase: initial 4.2
# Experimental: (§3) A tube 6 foot long and 6 inches in diameter was packed with soil. These tubes simulate the flow in an aquifer below ground and are referred to as Aquifer Simulation Vessels (ASV). The ASV has sample ports along the bottom at every 6-inch interval to allow sampling as water flows through the tube. Contaminated water is allowed to flow through the tube. As the water flows through the tube, the water within the space pockets of the soil is tested and when the soil with the tube is fully contaminated the flow was stopped. The soil pockets (pores) were full of contaminants from the water. At that point either ferrous cysteinate or sorbitol hexacysteinate was injected just ahead of the first port with no flow in the system.
# (§4) A separate tube was used for each of the two materials tested.
# (§5) Initially the soil pockets (pores) were filled with this solution as described. Either ferrous cysteinate or sorbitol hexacysteinate was injected into the soil containing tube. The concentration of contaminants at each sample port was measured over a 30 day period. The system was then flushed with fresh water to determine if the removed metals are “redistributed” or “redissolved” in the water (i.e. so called “rebound”). This measure determined the ability of the compounds to permanently remove the contaminants.
# [3] = Example D: two-flask liquid/soil system with chromated copper arsenate, chromium
# Experimental: as §1, §2
# [4] = Example D: two-flask liquid/soil system with chromated copper arsenate, copper
# Experimental: as §1, §2
# [5] = Example E: Aquifer Simulation Vessel (ASV), chromated copper arsenate, chromium; conditions: for Chromium concentration in aqueous phase / Cr concentration: initial 15
# Experimental: as §3, §4, §5
# [6] = Example C: reduction of As in arsenate solution in a flask, atomic absorption
# Experimental: 10.02 grams of ferrous cysteinate synthesized as in 1.4 were added to a 250 ml. flask which contained 150 ml of 32 ppm of As initially added as arsenic trioxide. The 32-ppm solution of As was prepared by using 0.08 grams of arsenic trioxide to which 3.0 grams of concentrated hydrochloric acid was added. This prepared the soluble arsenate. The solution was heated and diluted to one liter with distilled water. The As concentration was measured over time using atomic absorption.
# [7] = Example E: Aquifer Simulation Vessel (ASV), chromated copper arsenate, arsenic; conditions: for Arsenic concentration in aqueous phase: initial 25.7
# Experimental: as §3, §4, §5
substance,measurement,setting,value
ferrous cysteinate [FeC],remediation of arsenic in combined solution,[1],remediated
same,remediation of Cu in ASV,[2],effective remediation
same,Copper concentration in aqueous phase,"[2]; Port 1, Day 5",0.3 mg/L
same,Copper concentration in aqueous phase,"[2]; Port 1, Day 8",0.2 mg/L
same,Copper concentration in aqueous phase,"[2]; Port 1, Day 13",0.1 mg/L
same,Copper concentration in aqueous phase,"[2]; Port 1, Day 16",0.1 mg/L
same,Copper concentration in aqueous phase,"[2]; Port 1, Day 20",0.0 mg/L
same,Copper concentration in aqueous phase,"[2]; Port 1, Day 22",0.1 mg/L
same,Copper concentration in aqueous phase,"[2]; Port 1, Day 27",0.0 mg/L
same,Copper concentration in aqueous phase,"[2]; Port 5, Day 5",0.3 mg/L
same,Copper concentration in aqueous phase,"[2]; Port 5, Day 8",0.2 mg/L
same,Copper concentration in aqueous phase,"[2]; Port 5, Day 13",0.1 mg/L
same,Copper concentration in aqueous phase,"[2]; Port 5, Day 16",0.0 mg/L
same,Copper concentration in aqueous phase,"[2]; Port 5, Day 20",0.0 mg/L
same,Copper concentration in aqueous phase,"[2]; Port 5, Day 22",0.0 mg/L
same,Copper concentration in aqueous phase,"[2]; Port 5, Day 27",0.0 mg/L
same,Copper concentration in aqueous phase,"[2]; Port 10, Day 5",0.1 mg/L
same,Copper concentration in aqueous phase,"[2]; Port 10, Day 8",0.1 mg/L
same,Copper concentration in aqueous phase,"[2]; Port 10, Day 13",0.0 mg/L
same,Copper concentration in aqueous phase,"[2]; Port 10, Day 16",0.0 mg/L
same,Copper concentration in aqueous phase,"[2]; Port 10, Day 20",0.0 mg/L
same,Copper concentration in aqueous phase,"[2]; Port 10, Day 22",0.0 mg/L
same,Copper concentration in aqueous phase,"[2]; Port 10, Day 27",0.0 mg/L
same,remediation of chromium in combined solution,[3],remediated
same,remediation of copper in combined solution,[4],remediated
same,remediation of Cr in ASV,[5],effective remediation
same,Chromium concentration in aqueous phase,"[5]; Port 1, Day 8",5.8 mg/L
same,Chromium concentration in aqueous phase,"[5]; Port 1, Day 13",3.4 mg/L
same,Chromium concentration in aqueous phase,"[5]; Port 1, Day 16",1.4 mg/L
same,Chromium concentration in aqueous phase,"[5]; Port 1, Day 20",0.7 mg/L
same,Chromium concentration in aqueous phase,"[5]; Port 1, Day 22",1.1 mg/L
same,Chromium concentration in aqueous phase,"[5]; Port 1, Day 27",1.0 mg/L
same,Chromium concentration in aqueous phase,"[5]; Port 5, Day 8",4.8 mg/L
same,Chromium concentration in aqueous phase,"[5]; Port 5, Day 13",1.3 mg/L
same,Chromium concentration in aqueous phase,"[5]; Port 5, Day 16",0.9 mg/L
same,Chromium concentration in aqueous phase,"[5]; Port 5, Day 20",0.6 mg/L
same,Chromium concentration in aqueous phase,"[5]; Port 5, Day 22",1.0 mg/L
same,Chromium concentration in aqueous phase,"[5]; Port 5, Day 27",0.9 mg/L
same,Chromium concentration in aqueous phase,"[5]; Port 10, Day 8",5.2 mg/L
same,Chromium concentration in aqueous phase,"[5]; Port 10, Day 13",0.8 mg/L
same,Chromium concentration in aqueous phase,"[5]; Port 10, Day 16",0.6 mg/L
same,Chromium concentration in aqueous phase,"[5]; Port 10, Day 20",0.5 mg/L
same,Chromium concentration in aqueous phase,"[5]; Port 10, Day 22",0.9 mg/L
same,Chromium concentration in aqueous phase,"[5]; Port 10, Day 27",0.7 mg/L
same,Cr concentration,"[5]; port 1, day 30",0.7 mg/L
same,Cr concentration,"[5]; port 5, day 30",0.4 mg/L
same,Cr concentration,"[5]; port 10, day 30",0.4 mg/L
same,time in which the concentration of As was reduced by half,[6]; 10.02 grams in 150 ml of 32 ppm As,less than 45 hours
same,concentration of As after treatment,"[6]; from 32 ppm, in less than 45 hours",less than 15 ppm
same,remediation of As in ASV,[7],effective remediation
same,Arsenic concentration in aqueous phase,"[7]; Port 1, Day 5",25.8 mg/L
same,Arsenic concentration in aqueous phase,"[7]; Port 1, Day 8",10.9 mg/L
same,Arsenic concentration in aqueous phase,"[7]; Port 1, Day 13",6.8 mg/L
same,Arsenic concentration in aqueous phase,"[7]; Port 1, Day 16",3.6 mg/L
same,Arsenic concentration in aqueous phase,"[7]; Port 1, Day 20",3.3 mg/L
same,Arsenic concentration in aqueous phase,"[7]; Port 1, Day 22",1.1 mg/L
same,Arsenic concentration in aqueous phase,"[7]; Port 1, Day 27",0.6 mg/L
same,Arsenic concentration in aqueous phase,"[7]; Port 5, Day 5",23.1 mg/L
same,Arsenic concentration in aqueous phase,"[7]; Port 5, Day 8",9.8 mg/L
same,Arsenic concentration in aqueous phase,"[7]; Port 5, Day 13",6.8 mg/L
same,Arsenic concentration in aqueous phase,"[7]; Port 5, Day 16",3.5 mg/L
same,Arsenic concentration in aqueous phase,"[7]; Port 5, Day 20",3.0 mg/L
same,Arsenic concentration in aqueous phase,"[7]; Port 5, Day 22",0.9 mg/L
same,Arsenic concentration in aqueous phase,"[7]; Port 5, Day 27",0.5 mg/L
same,Arsenic concentration in aqueous phase,"[7]; Port 10, Day 5",23.9 mg/L
same,Arsenic concentration in aqueous phase,"[7]; Port 10, Day 8",7.7 mg/L
same,Arsenic concentration in aqueous phase,"[7]; Port 10, Day 13",5.4 mg/L
same,Arsenic concentration in aqueous phase,"[7]; Port 10, Day 16",2.8 mg/L
same,Arsenic concentration in aqueous phase,"[7]; Port 10, Day 20",2.9 mg/L
same,Arsenic concentration in aqueous phase,"[7]; Port 10, Day 22",0.8 mg/L
same,Arsenic concentration in aqueous phase,"[7]; Port 10, Day 27",0.5 mg/L
sorbitol tricysteinate,remediation of arsenic in combined solution,[1],remediated
same,remediation of chromium in combined solution,[3],remediated
same,remediation of copper in combined solution,[4],remediated
